Among the data in ChEMBL document CHEMBL1909046, “DrugMatrix in vitro pharmacology data” are IC50 and Ki values, retold here.

Data set [1] can be described thus: DRUGMATRIX: Phosphodiesterase PDE3 enzyme inhibition (substrate: [3H]cAMP + cAMP). Particulars: platelet; Not Active = under 50% inhibition at 10 µM. It is filed as tissue-based, Homo sapiens.
The nature of data set [2]: DRUGMATRIX: Sigma2 radioligand binding (ligand: [3H] Ifenprodil). Particulars: Not Active = under 50% inhibition at 10 µM. Format: cell membranes, Rattus norvegicus, Wistar, Brain, Membrane.
For data set [3], the target named is T1, Interstitial collagenase (Homo sapiens, UniProt P03956).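 Note: MMP-1 enzyme inhibition assay using a peptide substrate; in other assays of this panel Not Active means under 50% inhibition at 10 µM.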
T1 sequence (P03956 whole entry): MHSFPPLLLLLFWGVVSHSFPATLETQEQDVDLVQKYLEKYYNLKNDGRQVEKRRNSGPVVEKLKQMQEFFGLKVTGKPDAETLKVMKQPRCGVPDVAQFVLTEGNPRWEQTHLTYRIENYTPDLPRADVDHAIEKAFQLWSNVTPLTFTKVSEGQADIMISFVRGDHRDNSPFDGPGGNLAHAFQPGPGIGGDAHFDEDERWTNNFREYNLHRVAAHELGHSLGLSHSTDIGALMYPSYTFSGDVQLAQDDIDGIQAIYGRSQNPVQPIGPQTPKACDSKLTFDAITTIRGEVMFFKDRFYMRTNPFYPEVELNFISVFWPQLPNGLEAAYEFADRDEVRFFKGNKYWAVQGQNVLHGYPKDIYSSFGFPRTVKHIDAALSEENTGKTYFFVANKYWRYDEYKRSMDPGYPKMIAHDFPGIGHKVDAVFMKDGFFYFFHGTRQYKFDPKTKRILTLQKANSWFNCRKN
In words: biochemical. It is filed as tissue-based, Rheumatoid synovial fibroblasts.

Data set [4] is described as follows: DRUGMATRIX: Imidazoline I2, Central radioligand binding (ligand: [3H] Idazoxan). Format: cell membranes, Rattus norvegicus, Wistar, Cerebral cortex, Membrane. Particulars: Not Active = under 50% inhibition at 10 µM.
The target in data set [5] is Epidermal growth factor receptor (Homo sapiens, UniProt P00533). As to the kind of experiment: DRUGMATRIX: Protein Tyrosine Kinase, EGF Receptor enzyme inhibition (substrate: Poly(Glu:Tyr)). Format: cell-based, Insect cells. Particulars: insect cells, Not Active = under 50% inhibition at 10 µM.
The target of data set [6] is Cytochrome P450 2D6 (Homo sapiens, UniProt P10635). Particulars: bti-tn-5b1-4. Note: in other assays of this panel Not Active means under 50% inhibition at 10 µM.
Sequence of Cytochrome P450 2D6 (P10635 whole entry): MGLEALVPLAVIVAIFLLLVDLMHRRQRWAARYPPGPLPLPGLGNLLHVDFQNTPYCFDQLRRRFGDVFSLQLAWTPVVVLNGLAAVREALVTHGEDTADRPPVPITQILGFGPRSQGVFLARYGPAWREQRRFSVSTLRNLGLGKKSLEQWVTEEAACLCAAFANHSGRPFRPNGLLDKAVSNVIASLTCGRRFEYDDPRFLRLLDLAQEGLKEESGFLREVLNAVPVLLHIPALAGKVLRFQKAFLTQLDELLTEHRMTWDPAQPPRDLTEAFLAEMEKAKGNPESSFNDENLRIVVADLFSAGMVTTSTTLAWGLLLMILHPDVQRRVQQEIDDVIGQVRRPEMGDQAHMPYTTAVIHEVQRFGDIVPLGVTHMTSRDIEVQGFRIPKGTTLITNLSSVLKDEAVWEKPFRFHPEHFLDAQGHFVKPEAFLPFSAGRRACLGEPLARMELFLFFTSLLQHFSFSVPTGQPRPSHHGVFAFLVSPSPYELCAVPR

On to `C=CCN1CC[C@]23c4c5ccc(O)c4O[C@H]2/C(=N/N=C2\CC[C@@]4(O)[C@H]6Cc7ccc(O)c8c7[C@@]4(CCN6CC=C)[C@H]2O8)CC[C@@]3(O)[C@H]1C5` [NALOXONAZINE], for which the IC50 entry in data set [1], in data set [2], in data set [3], in data set [4], in data set [5] and in data set [6] was “Not Active” in each case. The Ki entry in data set [1], in data set [2], in data set [4] and in data set [6] was “Not Active” in each case.

Regarding `Oc1ncnc2[nH]ncc12` [ALLOPURINOL], the IC50 result in data set [1], in data set [2], in data set [3], in data set [4], in data set [5] and in data set [6] was “Not Active” in each case. The Ki entry in data set [1], in data set [2], in data set [4] and in data set [6] was “Not Active” in each case.

With `CCC1(c2ccccc2)C(=O)NC(=O)NC1=O` [PHENOBARBITAL], the IC50 entry in data set [1], in data set [2], in data set [3], in data set [4], in data set [5] and in data set [6] was “Not Active” in each case. The Ki entry in data set [1], in data set [2], in data set [4] and in data set [6] was “Not Active” each time.

With CHROMIC CHLORIDE, the IC50 (as a rule, the point on the concentration scale where inhibition reaches its midpoint) in data set [1] is “Not Active”; in data set [2], “Not Active”; in data set [3] it was “Not Active”; in data set [4], “Not Active”; in data set [5] (read-out: IC50) it was 2.96 µM; in data set [6], “Not Active”. Besides, the Ki result in data set [1], in data set [2], in data set [3], in data set [4] and in data set [6] was “Not Active” throughout.

Take `O=C(O)CCc1nc(-c2ccccc2)c(-c2ccccc2)o1` [OXAPROZIN]: the half-maximal inhibitory concentration (IC50) entry in data set [1], in data set [2], in data set [3], in data set [4], in data set [5] and in data set [6] was “Not Active” throughout. For the same compound, the Ki entry in data set [1], in data set [2], in data set [4] and in data set [6] was “Not Active” each time.

For the compound `CCN1C[C@]2(COC)[C@H](O)C[C@H](OC)[C@@]34[C@@H]5C[C@@]6(O)[C@H](OC(=O)c7ccccc7)[C@@H]5[C@@](OC(C)=O)([C@@H]([C@H](OC)[C@H]23)[C@@H]14)[C@@H](O)[C@@H]6OC` [ACONITINE], the 50% inhibitory concentration (IC50) entry in data set [1], in data set [2], in data set [3], in data set [4], in data set [5] and in data set [6] was “Not Active” each time. Also, the Ki result in data set [1], in data set [2], in data set [4] and in data set [6] was “Not Active” throughout.

Consider `Oc1ccccc1` [PHENOL], for which the IC50 entry in data set [1], in data set [2], in data set [3], in data set [4], in data set [5] and in data set [6] was “Not Active” throughout. For the same compound, the Ki entry in data set [1], in data set [2], in data set [4] and in data set [6] was “Not Active” throughout.

Take `Nc1nc(F)nc2c1ncn2[C@@H]1O[C@H](CO)[C@@H](O)[C@@H]1O` [FLUDARABINE]: the half-inhibitory concentration (IC50) entry in data set [1], in data set [2], in data set [3], in data set [4], in data set [5] and in data set [6] was “Not Active” each time. Besides, the Ki result in data set [1], in data set [2], in data set [4] and in data set [6] was “Not Active” throughout.

As for `O=C1CN(/N=C/c2ccc([N+](=O)[O-])o2)C(=O)N1` [NITROFURANTOIN], the IC50 result in data set [1], in data set [2], in data set [3], in data set [4], in data set [5] and in data set [6] was “Not Active” in each case. For the same compound, the Ki result in data set [1], in data set [2], in data set [4] and in data set [6] was “Not Active” in each case.

On to `CC12CCC(CC1=O)C2(C)C` (stereo unspecified) [CAMPHOR], for which the IC50 entry in data set [1], in data set [2], in data set [3], in data set [4], in data set [5] and in data set [6] was “Not Active” in each case. The Ki result in data set [1], in data set [2], in data set [4] and in data set [6] was “Not Active” throughout.

For the compound `Nc1nc(N)c2nc(CNc3ccc(C(=O)N[C@@H](CCC(=O)O)C(=O)O)cc3)cnc2n1` [AMINOPTERIN], the IC50 entry in data set [1], in data set [2], in data set [3], in data set [4], in data set [5] and in data set [6] was “Not Active” throughout. Moreover, the Ki entry in data set [1], in data set [2], in data set [4] and in data set [6] was “Not Active” throughout.

For the compound `Cc1c(N)nc([C@H](CC(N)=O)NC[C@H](N)C(N)=O)nc1C(=O)N[C@H](C(=O)N[C@H](C)[C@@H](O)[C@H](C)C(=O)N[C@H](C(=O)NCCc1nc(-c2nc(C(=O)NCCC[S+](C)C)cs2)cs1)[C@@H](C)O)[C@@H](O[C@@H]1O[C@@H](CO)[C@@H](O)[C@H](O)[C@@H]1O[C@H]1O[C@H](CO)[C@@H](O)[C@H](OC(N)=O)[C@@H]1O)c1c[nH]cn1.[Br-]` [BLEOMYCIN A2], the IC50 entry in data set [1], in data set [2], in data set [3], in data set [4], in data set [5] and in data set [6] was “Not Active” throughout. Further, the Ki entry in data set [1], in data set [2], in data set [4] and in data set [6] was “Not Active” throughout.

Turning to `OC[C@H]1O[C@@H]2O[C@H]3[C@H](O)[C@@H](O)[C@@H](O[C@H]4[C@H](O)[C@@H](O)[C@@H](O[C@H]5[C@H](O)[C@@H](O)[C@@H](O[C@H]6[C@H](O)[C@@H](O)[C@@H](O[C@H]7[C@H](O)[C@@H](O)[C@@H](O[C@H]1[C@H](O)[C@H]2O)O[C@@H]7CO)O[C@@H]6CO)O[C@@H]5CO)O[C@@H]4CO)O[C@@H]3CO` [ALFADEX], the IC50 entry in data set [1], in data set [2], in data set [3], in data set [4], in data set [5] and in data set [6] was “Not Active” throughout. The Ki entry in data set [1], in data set [2], in data set [4] and in data set [6] was “Not Active” each time.

As for `O=C(Nc1ccc(Cl)c(Cl)c1)c1cc(Cl)cc(Cl)c1O` [3,3',4',5-TETRACHLOROSALICYLANILIDE], the IC50 result in data set [1], in data set [2], in data set [3], in data set [4], in data set [5] and in data set [6] was “Not Active” each time. The Ki result in data set [1], in data set [2], in data set [4] and in data set [6] was “Not Active” in each case.

For the compound `COC(=O)Nc1nc2ccc(Sc3ccccc3)cc2[nH]1` [FENBENDAZOLE], the IC50 entry in data set [1], in data set [2], in data set [3], in data set [4], in data set [5] and in data set [6] was “Not Active” throughout. In addition, the Ki result in data set [1], in data set [2], in data set [4] and in data set [6] was “Not Active” each time.

As to `Nc1ccc(C(=O)O)c(O)c1` [AMINOSALICYLIC ACID], the IC50 entry in data set [1], in data set [2], in data set [3], in data set [4], in data set [5] and in data set [6] was “Not Active” in each case. Further, the Ki entry in data set [1], in data set [2], in data set [4] and in data set [6] was “Not Active” throughout.

Take `COC(=O)C[C@](O)(CCC(C)(C)O)C(=O)O[C@@H]1C(OC)=C[C@]23CCCN2CCc2cc4c(cc2[C@H]13)OCO4` [HARRINGTONINE]: the IC50 result in data set [1], in data set [2], in data set [3], in data set [4], in data set [5] and in data set [6] was “Not Active” throughout. The Ki entry in data set [1], in data set [2], in data set [4] and in data set [6] was “Not Active” each time.
